The values below come from patent US12716888B2, “Composition for diagnosis or treatment of anticancer drug resistance” (priority 2020, dated 2026).

Series [1] deals with ECF-resistant MKN-74 cells. The experiment in a line: Crystal violet staining and WST-1 analysis of regrowth after ECF treatment of NINJ2 knockdown cells. The format is cell-based, human. Conditions: 3 weeks after ECF treatment; NINJ2 knockdown ECF-resistant MKN-74 cells. As to the method: To evaluate whether NINJ2 is involved in drug resistance, a stable NINJ2 knockdown (K/D) ECF-resistant cancer cell line was prepared using shRNA lentiviral particles and puromycin. More specifically, for stable NINJ2 knockdown in ECF-resistant MKN-74 cells, two shRNAs (TRCN0000063773 (Clone-1) and TRCN0000063775 (Clone-2)) targeting different partial regions of NINJ2 genes (Isoform-1, Isoform-2 and Isoform-3) as shown in Table 1 below were used, and a non-targeting pLKO.1-puro shRNA control (SHC002) was used as a negative control. The shRNA clones (TRCN0000063773, TRCN0000063775 and SHC002) containing the pMDLg/pRRE, pRSV-Rev and pMD2.G plasmids, respectively, were transfected into 293T cells using Fugene HD (Promega) according to the manufacturer's instructions. After 48 hours, each supernatant was collected and filtered, and ECF-resistant MKN-74 cells were transduced with lentiviral particles and cultured in a growth medium containing puromycin. After NINJ2 knockdown in the lentivirus-transduced MKN-74 cells was confirmed using qRT-PCR, the cells were treated with ECF, and an examination was made as to whether cancer cells in the negative control (Mock) and the shNINJ2 groups (clone 1 and clone 2) re-grew.
For orientation: Formazan colour is commonly taken as a measure of viable cells.

The test system of series [2] is ECF-resistant cancer cells (RES) from the MKN-28/74 cell line. The experiment in a line: Nude mouse xenograft of ECF-resistant MKN-28/74 cells given ECF and siRNA. The series is classed as in vivo, Balb/c nude mice. Conditions: ECF (5.7 mg/kg epirubicin, 6.67 mg/kg cisplatin, 22 mg/kg 5-FU) intratumorally once a week; NINJ2 mRNA expression inhibited. The protocol: FIGS. 9A and 9B show the results of measuring changes in tumor volume and weight after transplanting wild-type or scrambled siRNA RES and siNINJ2 RES cancer cell lines from the MKN-28/74 cell line into nude mice and then administering ECF and siRNA to the nude mice when the tumor volume reached 100 mm^3, according to one example of the present invention.
A mouse model was prepared by xenografting Balb/c nude mice with the spheroids prepared from the MKN-28/74 cell line by the method of Example 3. Specifically, […] ECF-resistant cancer cells (ECF-R cancer cells) and parental cancer cells were subcutaneously injected into Balb/c nude mice, respectively, and an examination was made as to whether the animal model xenografted with the ECF-resistant cancer cells (RES) established in vitro had acquired ECF drug resistance. […] To this end, 5.7 mg/kg of epirubicin, 6.67 mg/kg of cisplatin and 22 mg/kg of 5-FU were administered intratumorally to xenograft model mice having a tumor size of 100 mm^3 once a week for 15 days, and the tumor weight and the tumor volume were measured every 3 days using digital calipers. […]
Referring to FIG. 9A, it was confirmed that the tumor volume changed after the ECF drugs were administered to the animal model xenografted with each cell line group. FIG. 9B depicts graphs showing the results of quantifying the changes in the tumor volume and weight.

Regarding “clone-1: NINJ2-targeting shRNA, lentiviral; target region SEQ ID NO: 5, hairpin sequence SEQ ID NO: 9 (guide CCGGCGTGGTCATTGCACGGCTGAACTCGAGTTCAGCCGTGCAATGACCACGTTTTTG)”, the “recurrence and regrowth of cancer cells compared to negative control (Mock)” value in series [1] was “significantly inhibited”.

Turning to “clone-2: NINJ2-targeting shRNA, lentiviral; target region SEQ ID NO: 6, hairpin sequence SEQ ID NO: 10 (guide CCGGCTGAACCTGAATGAGGTAGAACTCGAGTTCTACCTCATTCAGGTTCAGTTTTTG)”, the “recurrence and regrowth of cancer cells compared to negative control (Mock)” value in series [1] was “significantly inhibited”.

Regarding “siNINJ2: siRNA against NINJ2, sense SEQ ID NO: 11 and antisense SEQ ID NO: 12 (sense GUAAGGCAUGUCUGUCUAAGGCC; antisense GGCCUUAGACAGACAUGCCUUAC; listed as RNA, chemistry not given here)”, in series [2], the “tumor volume compared to the RES group” value is given as “significantly decreased” and the “tumor weight compared to the RES group” value was “significantly decreased”.
